In patent publication US10407409B2, “6-(5-hydroxy-1H-pyrazol-1-yl)nicotinamide inhibitors of PHD” (Takeda Pharmaceutical Company Limited, priority 2013, dated 2019):

Assays:
VEGF = assay: Heart gene changes for vascular endothelial growth factor (VEGF), qRT-PCR; assay type: in vivo, mice; settings: 60 mg/kg; for VEGF % Increase Compared to Control: male C57BL/6 mice, oral, heart, 2 h after dosing
Method: Example D Determination of Heart Gene Changes for Vascular Endothelial Growth Factor (VEGF)
PHD inhibitor or vehicle were administered orally to male C57BL/6 in groups of four. The compounds were formulated in 30% hydroxypropyl beta-cyclodextrin in 50 mM Sodium Phosphate pH7.4 at doses of 30 mg/kg and 60 mg/kg. Two hours after dosing the mice were euthanized by CO2 and the hearts were removed quickly, sectioned into 2 pieces; the lower (apical) section was snap frozen and stored at −80° C. and analyzed for VEGF gene changes applying qRT-PCR and using Life Technologies #4392938 and an RNA extraction protocol using Qiagen #74881 RNeasy 96 Universal Tissue Kit. Standards are made from RNA from combined vehicle treated animals at a concentration of 100 μg/mL, a 7 point curve is made with 1:4 dilutions and a blank. Samples are run on using RNA-to-CT 1-Step method using a StepOnePlus Real-Time PCR System from Applied Biosystems Relative quantitation is expressed by dividing the quantity of VEGF by the quantity of the reference gene. Treatment groups and vehicle control were combined and averaged.

[1] = system: HIF1a protein in H9c2 rat cardiomyocytes; assay: Cell-based HIF-alpha stabilization assay (inhibition of PHD in cells); settings: Rattus norvegicus, H9c2, 24 h, 24 hrs compound incubation, HIF1a protein by ELISA, read-out: Inhibition of PHD in cells (pEC50) (converted)
Method in brief: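 HIF1a stabilization was measured by ELISA on lysates of H9c2 rat cardiomyocytes after 24 h exposure to 11 serial compound concentrations, expressed relative to the desferrioxamine maximum. Curve fits gave EC50. EC50pos denotes the concentration producing half the desferrioxamine maximal response.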

[2] = molecular target: PHD2 enzyme (residues 181-417) (Homo sapiens (Human), UniProt Q9GZT9); assay: Inhibition of PHD enzyme (LC/MS peptide hydroxylation assay); assay type: biochemical; settings: PHD2 (residues 181-417) 5 nM, 60 min pre-incubation; -log(IC50), IC50 molar
Sequence of PHD2 enzyme (residues 181-417) (Q9GZT9 181-417): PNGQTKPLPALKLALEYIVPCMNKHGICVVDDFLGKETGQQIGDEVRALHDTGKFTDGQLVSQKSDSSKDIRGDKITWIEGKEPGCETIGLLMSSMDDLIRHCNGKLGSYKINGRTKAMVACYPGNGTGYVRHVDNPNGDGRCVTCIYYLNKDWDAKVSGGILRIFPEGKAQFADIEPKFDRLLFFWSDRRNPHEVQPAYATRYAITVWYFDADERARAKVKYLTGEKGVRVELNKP
Method in brief: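 Hydroxylated peptide quantified by LC/MS after 60 min turnover of 1 uM biotinylated peptide with 2 uM 2-oxoglutarate and 1 mM ascorbate, stopped by excess tight-binding inhibitor. Beforehand, 5 nM enzyme and compound were preincubated 60 min at RT, pH 7.3 HEPES/KCl/TCEP/FeCl2/BSA buffer. Values as pIC50 (−log molar IC50).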

Sprague Dawley rats = assay: In vivo cardioprotection assay, Langendorff global ischemia/reperfusion, rats; settings: oral, 5 mg/kg, 30 min global ischemia, 90 min reperfusion
Method: (§1) Example C In Vivo Cardioprotection Assay
(§2) PHD inhibitor or vehicle was administered orally to 8-week old male C57 mice or Sprague Dawley rats. Four hours after dosing, hearts were removed quickly and perfused in a retrograde manner with modified Krebs-Henseleit buffer in a Langendorff apparatus at constant pressure (80 mmHg). To measure infarct size, hearts were first perfused for 20 min to reach equilibrium and then subjected to a 30-minute global ischemia (no-flow) period followed by a 60-min reperfusion period in mice or 90-min reperfusion in rats. The ventricles were cut transversely into 5 sections. The slices were stained 1% 2,3,5-triphenyl tetrazolium chloride (TTC) and scanned to measure the infarct area and the total area. Cardiac injury was assessed by measuring lactate dehydrogenase (LDH) release to coronary effluent during the 60-min reperfusion period (in mice only). The amount of LDH release was determined using an LDH activity assay kit (MBL International Corp.) as expressed as % of vehicle treated hearts.

C57 mice = assay: In vivo cardioprotection assay, Langendorff global ischemia/reperfusion, mice; settings: oral, 60 min reperfusion; for reduced area of the infarct compared to vehicle control: 4 h after dosing, 30 min global ischemia
Method: as §1, §2

Row | SMILES | EC50 [1] [nM] | PHD Inhibition (pIC50) [2] | also measured
1 | CC(C)(C)NC(=O)c1ccc(-n2ncc(-c3cccnc3)c2O)nc1 [Example R1, N-tert-butyl-6-(5-oxo-4-pyridin-3-yl-2,5-dihydro-1H-pyrazol-1-yl)pyridine-3-carboxamide, reference compound] | 955 |  | VEGF % Increase Compared to Control (VEGF): 95.2%
2 | Cc1cc(C#N)ccc1-c1cnn(-c2ccc(C(=O)N3CCN(CCN(C)C)CC3)cn2)c1O [Example 423, 4-(1-(5-(4-(2-(dimethylamino)ethyl)piperazine-1-carbonyl)pyridin-2-yl)-5-hydroxy-1H-pyrazol-4-yl)-3-methylbenzonitrile] | 708 | 7.99 | 
3 | CC[C@H](C)NC(=O)c1ccc(-n2ncc(-c3ccc(C#N)cc3C)c2O)nc1 [Example 122, (S)—N-(sec-butyl)-6-(4-(4-cyano-2-methylphenyl)-5-hydroxy-1H-pyrazol-1-yl)nicotinamide] | 95.5 | 7.06 | 
4 | N#Cc1ccc(-c2cnn(-c3ccc(C(=O)NC4CCCCC4)cn3)c2O)cc1 [Example 75, 6-(4-(4-cyanophenyl)-5-hydroxy-1H-pyrazol-1-yl)-N-cyclohexylnicotinamide] | 1700 | 7.28 | 
5 | N#Cc1ccc(-c2cnn(-c3ccc(C(=O)N[C@H]4CC[C@H](O)C4)cn3)c2O)cc1 [Example 259, 6-(4-(4-cyanophenyl)-5-hydroxy-1H-pyrazol-1-yl)-N-((1s,3s)-3-hydroxycyclopentyl)nicotinamide] | 1000 | 7.39 | 
6 | CCNC(=O)c1ccc(-n2ncc(-c3ccnc(OC)c3)c2O)nc1 [Example 34, N-ethyl-6-(5-hydroxy-4-(2-methoxypyridin-4-yl)-1H-pyrazol-1-yl)nicotinamide] | 513 | 8 | 
7 | Cc1cc(C#N)ccc1-c1cnn(-c2ccc(C(=O)N3CCCC(N4CCCCC4)C3)cn2)c1O (stereo not shown) [Example 314, 4-(1-(5-([1,3′-bipiperidine]-1′-carbonyl)pyridin-2-yl)-5-hydroxy-1H-pyrazol-4-yl)-3-methylbenzonitrile] | 550 | 7.90 | 
8 | Cc1cc(C#N)ccc1-c1cnn(-c2ccc(C(=O)N3CCCN(C)CC3)cn2)c1O [Example 287, 4-(5-hydroxy-1-(5-(4-methyl-1,4-diazepane-1-carbonyl)pyridin-2-yl)-1H-pyrazol-4-yl)-3-methylbenzonitrile] | 3550 | 8.10 | 
9 | C[C@H](NC(=O)c1ccc(-n2ncc(-c3ccc(C#N)cc3)c2O)nc1)C1CCOCC1 [Example 173, (S)-6-(4-(4-cyanophenyl)-5-hydroxy-1H-pyrazol-1-yl)-N-(1-(tetrahydro-2H-pyran-4-yl)ethyl)nicotinamide] | 1100 | 7.21 | 
10 | CCN1CCN(C(=O)c2ccc(-n3ncc(-c4ccc(C#N)cc4C)c3O)nc2)CC1 [Example 282, 4-(1-(5-(4-ethylpiperazine-1-carbonyl)pyridin-2-yl)-5-hydroxy-1H-pyrazol-4-yl)-3-methylbenzonitrile] | 575 | 8.00 | reduced area of the infarct (Sprague Dawley rats): 30%; greater VEGF mRNA production compared to the compound of Example R1 (VEGF; mouse heart): 2 fold; VEGF % Increase Compared to Control (VEGF): 203.1%; reduction of LDH released to the coronary effluent (C57 mice; 10 mg/kg): 51%; reduced area of the infarct compared to vehicle control (C57 mice; 10 mg/kg): 50%; reduction of LDH released to the coronary effluent (C57 mice; 30 mg/kg): 56%; reduced area of the infarct compared to vehicle control (C57 mice; 30 mg/kg): 59%
11 | Cc1cc(-n2ncc(-c3ccc(C#N)cc3)c2O)ncc1C(=O)NC1CC1 [Example 275, 6-(4-(4-cyanophenyl)-5-hydroxy-1H-pyrazol-1-yl)-N-cyclopropyl-4-methylnicotinamide] | 3800 | 7.03 | 
12 | CCN1CCCC1CN(C)C(=O)c1ccc(-n2ncc(-c3ccc(C#N)cc3C)c2O)nc1 (stereo not shown) [Example 355, 6-(4-(4-cyano-2-methylphenyl)-5-hydroxy-1H-pyrazol-1-yl)-N-((1-ethylpyrrolidin-2-yl)methyl)-N-methylnicotinamide] | 724 | 7.94 | 
13 | COCCCNC(=O)c1ccc(-n2ncc(-c3ccc(C#N)cc3C)c2O)nc1 [Example 121, 6-(4-(4-cyano-2-methylphenyl)-5-hydroxy-1H-pyrazol-1-yl)-N-(3-methoxypropyl)nicotinamide] | 191 | 7.17 | 
14 | Cc1c(-c2cnn(-c3ccc(C(=O)N4CCC[C@@H](N(C)C)C4)cn3)c2O)ccc(C#N)c1F [Example 319, (R)-4-(1-(5-(3-(dimethylamino)piperidine-1-carbonyl)pyridin-2-yl)-5-hydroxy-1H-pyrazol-4-yl)-2-fluoro-3-methylbenzonitrile] | 537 | 8.17 | 
15 | Cc1c(-c2cnn(-c3ccc(C(=O)N4CC[C@@H](N(C)C)C4)cn3)c2O)ccc(C#N)c1F [Example 317, (R)-4-(1-(5-(3-(dimethylamino)pyrrolidine-1-carbonyl)pyridin-2-yl)-5-hydroxy-1H-pyrazol-4-yl)-2-fluoro-3-methylbenzonitrile] | 676 | 8.31 | 
16 | N#Cc1ccc(-c2cnn(-c3ccc(C(=O)NCc4ccccc4)cn3)c2O)c(F)c1 [Example 220, N-benzyl-6-(4-(4-cyano-2-fluorophenyl)-5-hydroxy-1H-pyrazol-1-yl)nicotinamide] | 1070 | 7.13 | 
17 | CC[C@H](CC#N)NC(=O)c1ccc(-n2ncc(-c3ccc(C#N)cc3)c2O)nc1 [Example 74, (R)—N-(1-cyanobutan-2-yl)-6-(4-(4-cyanophenyl)-5-hydroxy-1H-pyrazol-1-yl)nicotinamide] | 3160 | 7.05 | 
18 | CN(C(=O)c1ccc(-n2ncc(-c3ccc(C#N)cc3)c2O)nc1)C1CC1 [Example 239, 6-(4-(4-cyanophenyl)-5-hydroxy-1H-pyrazol-1-yl)-N-cyclopropyl-N-methylnicotinamide] | 1700 | 7.12 | 
19 | CCOCCCNC(=O)c1ccc(-n2ncc(-c3ccnc(OC)c3)c2O)nc1 [Example 12, N-(3-ethoxypropyl)-6-(5-hydroxy-4-(2-methoxypyridin-4-yl)-1H-pyrazol-1-yl)nicotinamide] | 661 | 7.44 | 
20 | COc1cc(-c2cnn(-c3ccc(C(=O)NC4CCN(C)CC4)cn3)c2O)ccn1 [Example 33, 6-(5-hydroxy-4-(2-methoxypyridin-4-yl)-1H-pyrazol-1-yl)-N-(1-methylpiperidin-4-yl)nicotinamide] | 1170 | 7.4 | 
21 | Cc1cc(C#N)ccc1-c1cnn(-c2ccc(C(=O)N3CCN(C4CC4)CC3)cn2)c1O [Example 414, 4-(1-(5-(4-cyclopropylpiperazine-1-carbonyl)pyridin-2-yl)-5-hydroxy-1H-pyrazol-4-yl)-3-methylbenzonitrile] | 832 | 8.39 | 
